Tested on: binding of troponin I to the actin-tropomyosin complex
Experiment: Experiment 4 and comparison example: co-precipitation (binding) of troponin I with the actin-tropomyosin complex in the presence of EGTA
Design: species or system swine
Conditions: for Precipitate of troponin I (ratio to the sample without drug): 10 mM EGTA, 100,000×g 120 min 25° C.
Experimental: The actin-tropomyosin complex and the troponin C-I complex are usually detected by analyzing the precipitate obtained by ultracentrifugation of a mixture containing the actin-tropomyosin complex and the troponin C-I complex for 120 minutes at 100,000×g at 25° C. The binding of the troponin C-I complex to the actin-tropomyosin complex in muscle tissues can be confirmed by the detected actin-tropomyosin complex and the detected troponin C-I complex. For example, when a mixture containing the actin-tropomyosin complex and the troponin C-I complex is ultracentrifuged in the presence of EGTA as a calcium chelating agent (in other words, in the absence of calcium ions), the actin-tropomyosin complex and the troponin C-I complex combine each other to precipitate together. Detection of troponin I in the precipitate using SDS-gel electrophoresis allows confirmation that the precipitate contains a complex formed by the actin-tropomyosin complex and the troponin C-I complex.
A precipitate due to binding of the actin-tropomyosin complex and troponin I is usually not formed when a mixture containing the actin-tropomyosin complex, troponin and propranolol (a β-blocker) used as a therapeutic agent for heart failure is ultracentrifuged at 100,000×g for 120 minutes 25° C.
Swine muscle-derived actin, chicken gizzard-derived tropomyosin and swine myocardium-derived troponin used in this experiment were purchased from Sigma-Aldrich Corporation, and other unspecified reagents used in this experiment were purchased from Wako Pure Chemical Industries Ltd.
A 500 μl sample was prepared by adding 4.2 μg of actin, 2.1 μg of tropomyosin and 14 μg of troponin to 500 μl of a reaction solution containing 60 mM KCl, 20 mM MOPS (3-morpholinopropanesulfonic acid), 2 mM of MgCl2, 0.05 μg of pepstatin A, and 15 mM 2-mercaptoethanol. After centrifugation of this sample at 2,000×g for 10 minutes at 25° C., the precipitate was removed and the resulting supernatant was distributed to separate test tubes containing 10 mM of EGTA, and each tube was determined as a test sample.
Each test sample was reacted for 120 minutes at 25° C. and centrifuged at 100,000×g for 120 minutes at 25° C., and the supernatants were removed. After reaction solution was gently added to the removed precipitate so as not to suspend the precipitate, the precipitate was again removed by suction, washed, and determined as a test precipitate.
A sample buffer for polyacrylamide gel electrophoresis (SDS-PAGE) was added to each washed test precipitate and mixed well to suspend the test precipitate. The resulting suspension was electrophoresized on a gel (PAG MINI “No. 1” 10/20) for about 1 hour at 40 mA. After electrophoresis, the suspension was silver-stained using “Daiichi” 2D-silver staining reagent (Daiichi Pure Chemicals Co., Ltd), and washed with distilled water and dried. The amount of precipitate in each silver-stained protein band obtained by gel electrophoresis was quantitated using a densitometer.
The amounts of precipitate of troponin I in the second to fifth test precipitates were calculated as ratios of the amount of precipitate of troponin I in the first test precipitate, which was obtained without the compound (the concentration of the compound was 0 M).
The affinity of troponin I for the actin-tropomyosin complex was measured using the same method as in Experiment 4, but using propranolol (a β-blocker which is used as a therapeutic agent for heart failure) for comparison with the compound in the invention.
A 500 μl sample was prepared by adding 4.2 μg of actin, 2.1 μg of tropomyosin and 14 μg of troponin I to 500 μl of a reaction solution containing 60 mM KCl, 20 mM MOPS (3-morpholinopropanesulfonic acid), 2 mM MgCl2, 0.05 μg of pepstatin A, and 15 mM 2-mercaptoethanol. […]

`CC(C)NCC(O)COc1cccc2ccccc12` (centres unmarked) [Propranolol, propranolol] was tested, and the “Precipitate of troponin I (ratio to the sample without drug)” value (drug concentration 10^−4 mol) was 1.1, the “Precipitate of troponin I (ratio to the sample without drug)” value (drug concentration 10^−5 mol) was 0.9 and the “Precipitate of troponin I (ratio to the sample without drug)” value (drug concentration 10^−6 mol) was 1.1. The “Precipitate of troponin I (ratio to the sample without drug)” value (drug concentration 10^−7 mol) was 0.9 and the “Effect on the bonding strength of troponin I to the actin-tropomyosin complex (co-precipitation)” value (ultracentrifugation 100,000×g, 120 minutes, 25° C.) was “does not enhance the bonding strength of troponin to the actin-tropomyosin complex”.
